Experimental data reported in ChEMBL document CHEMBL3785053, “Synthesis and screening of ursolic acid-benzylidine derivatives as potential anti-cancer agents” (Eur J Med Chem, 2016).
Active and inactive are the calls of the source. No cut-off for these calls is given here.

What was measured:
[1] = Cytotoxicity against human HCT116 cells after 48 hrs by MTT assay; type: functional, cell-based; settings: HCT-116, 48 h
A549 [2] = experiment: Cytotoxicity against human A549 cells after 48 hrs by MTT assay; type: functional, cell-based; settings: A549, 48 h
[3] = Cytotoxicity against human THP1 cells at 50 uM after 48 hrs by MTT assay; type: functional; settings: THP-1, 48 h, read-out: GI
[4] = Cytotoxicity against human FR2 cells at 50 uM after 48 hrs by MTT assay; type: cell-based; settings: read-out: GI
[5] = Cytotoxicity against human HCT116 cells at 50 uM after 48 hrs by MTT assay; type: functional; settings: HCT-116, 48 h, read-out: GI
A549 [6] = experiment: Cytotoxicity against human A549 cells at 50 uM after 48 hrs by MTT assay; type: functional; settings: A549, 48 h, read-out: GI
MCF7 [7] = experiment: Cytotoxicity against human MCF7 cells at 50 uM after 48 hrs by MTT assay; type: functional; settings: MCF7, 48 h, read-out: GI
HCT-116 [8] = experiment: Induction of apoptosis in human HCT116 cells assessed as pycnosis at 10 to 20 uM after 24 hrs by acridine orange/ethidium bromide staining-based fluorescence microscopy; type: functional, cell-based
MCF7 [9] = experiment: Cytotoxicity against human MCF7 cells after 48 hrs by MTT assay; type: functional, cell-based; settings: MCF7, 48 h
[10] = Cytotoxicity against human THP1 cells after 48 hrs by MTT assay; type: functional, cell-based; settings: THP-1, 48 h
[11] = Cytotoxicity against human FR2 cells after 48 hrs by MTT assay; type: cell-based; settings: FR2, 48 h
HCT-116 [12] = experiment: Induction of apoptosis in human HCT116 cells assessed as membrane blebbing at 10 to 20 uM after 24 hrs by acridine orange/ethidium bromide staining-based fluorescence microscopy; type: functional, cell-based
HCT-116 [13] = experiment: Induction of apoptosis in human HCT116 cells assessed as cell budding at 10 to 20 uM after 24 hrs by acridine orange/ethidium bromide staining-based fluorescence microscopy; type: functional
HCT-116 [14] = experiment: Induction of apoptosis in human HCT116 cells at 20 uM after 24 hrs by Hoechst 33258 staining-based fluorescence microscopy; type: functional, cell-based
HCT-116 [15] = experiment: Induction of apoptosis in human HCT116 cells at 20 uM after 24 hrs by JC-1 staining-based fluorescence microscopy; type: functional, cell-based
HCT-116 [16] = experiment: Induction of cell cycle arrest in human HCT116 cells assessed as accumulation at G1 phase at 20 uM after 48 hrs by propidium iodide staining-based flow cytometry (reference value: 41.51%); type: functional
HCT-116 [17] = experiment: Induction of cell cycle arrest in human HCT116 cells assessed as accumulation at G2 phase at 20 uM after 48 hrs by propidium iodide staining-based flow cytometry (reference value: 32.43%); type: functional
[18] = Upregulation of Bax expression in human HCT116 cells at 20 uM after 24 hrs by Western blotting method; type: functional, cell-based; settings: HCT-116
[19] = Downregulation of Bcl2 expression in human HCT116 cells at 20 uM after 24 hrs by Western blotting method; type: functional, cell-based; settings: HCT-116
[20] = Induction of apoptosis in human HCT116 cells assessed as upregulation of caspase-9 expression at 20 uM after 24 hrs by Western blotting method; type: functional, cell-based; settings: HCT-116
[21] = Induction of apoptosis in human HCT116 cells assessed as upregulation of caspase-3 expression at 20 uM after 24 hrs by Western blotting method; type: functional, cell-based; settings: HCT-116

| Structure (SMILES) | IC50 [1] | IC50 (A549 [2]) | inhibition of growth at 50 µM [3] | inhibition at 48 h, 50 µM [4] | inhibition of growth at 50 µM [5] | inhibition of growth at 50 µM (A549 [6]) | inhibition of growth at 50 µM (MCF7 [7]) | IC50 (MCF7 [9]) | IC50 [10] | IC50 [11] | also measured |
| --- | --- | --- | --- | --- | --- | --- | --- | --- | --- | --- | --- |
| C[C@H]1[C@H](C)CC[C@]2(C(=O)O)CC[C@]3(C)C(=CC[C@@H]4[C@@]5(C)C/C(=C\c6cc(O)ccc6O)C(=O)C(C)(C)[C@@H]5CC[C@]43C)[C@H]12 | < 0.1 µM | 0.55 µM | 94% | 91% | 99% | 93% | 100% | 5.5 µM | 0.9 µM | 0.8 µM | Activity (HCT-116 [8]): Active; Activity (HCT-116 [12]): Active; Activity (HCT-116 [13]): Active; Activity (HCT-116 [14]): Active; Activity (HCT-116 [15]): Active; Activity (HCT-116 [16]): 65.58%; Activity (HCT-116 [17]): 11.65%; Activity [18]: Active; Activity [19]: Active; Activity [20]: Active; Activity [21]: Active |
| COc1cc(/C=C2\C[C@]3(C)[C@H]4CC=C5[C@@H]6[C@@H](C)[C@H](C)CC[C@]6(C(=O)O)CC[C@@]5(C)[C@]4(C)CC[C@H]3C(C)(C)C2=O)cc(OC)c1OC | < 0.9 µM | < 0.9 µM | 93% | 81% | 99% | 99% | 99% | 4 µM | 9.1 µM | 35 µM | – |
| C[C@H]1[C@H](C)CC[C@]2(C(=O)O)CC[C@]3(C)C(=CC[C@@H]4[C@@]5(C)C/C(=C\C=C\c6ccccc6)C(=O)C(C)(C)[C@@H]5CC[C@]43C)[C@H]12 | 2.1 µM | 0.65 µM | 93% | 80% | 98% | 89% | 99% | 12 µM | 16 µM | 38 µM | – |
| COc1cc(OC)c(OC)cc1/C=C1\C[C@]2(C)[C@H]3CC=C4[C@@H]5[C@@H](C)[C@H](C)CC[C@]5(C(=O)O)CC[C@@]4(C)[C@]3(C)CC[C@H]2C(C)(C)C1=O | 12 µM | 9 µM | 80% | 76% | 85% | 60% | 76% | 20 µM | 2 µM | 40 µM | – |
